{
  "source": "patent US9447075B2",
  "about": "“Pyridazine derivatives as EAAT2 activators” (The Brigham and Women's Hospital, Inc., priority 2011, dated 2016)",
  "key": {"[1]": {"system": "All other targets (seventy-one targets tested)", "experiment": "In vitro side effect profiling: all other of seventy-one targets", "conditions": "10 μM, duplicate", "procedure": "(§1) To assess Compound 212320's biological activity and selectivity, we performed an in vitro side effect profiling study. Seventy-one targets were tested at 10 μM in duplicate. These targets include neurotransmitter related receptors (30), steroids (2), ion channels (6), second messenger (1), prostaglandins (3), growth factors/hormones (4), brain/gut peptides (13), enzymes (5) and cytochrome p450 (7). […] Additionally, we performed a protein kinase profiling study. Compound 212320 was tested at 1 and 10 μM against 288 kinases. […] These studies indicate that Compound 212320 has high specificity and low side-effects/toxicity potential."}, "EphA4": {"target": "EphA4 (Homo sapiens, UniProt P54764)", "sequence (P54764 20-986, species assumed)": "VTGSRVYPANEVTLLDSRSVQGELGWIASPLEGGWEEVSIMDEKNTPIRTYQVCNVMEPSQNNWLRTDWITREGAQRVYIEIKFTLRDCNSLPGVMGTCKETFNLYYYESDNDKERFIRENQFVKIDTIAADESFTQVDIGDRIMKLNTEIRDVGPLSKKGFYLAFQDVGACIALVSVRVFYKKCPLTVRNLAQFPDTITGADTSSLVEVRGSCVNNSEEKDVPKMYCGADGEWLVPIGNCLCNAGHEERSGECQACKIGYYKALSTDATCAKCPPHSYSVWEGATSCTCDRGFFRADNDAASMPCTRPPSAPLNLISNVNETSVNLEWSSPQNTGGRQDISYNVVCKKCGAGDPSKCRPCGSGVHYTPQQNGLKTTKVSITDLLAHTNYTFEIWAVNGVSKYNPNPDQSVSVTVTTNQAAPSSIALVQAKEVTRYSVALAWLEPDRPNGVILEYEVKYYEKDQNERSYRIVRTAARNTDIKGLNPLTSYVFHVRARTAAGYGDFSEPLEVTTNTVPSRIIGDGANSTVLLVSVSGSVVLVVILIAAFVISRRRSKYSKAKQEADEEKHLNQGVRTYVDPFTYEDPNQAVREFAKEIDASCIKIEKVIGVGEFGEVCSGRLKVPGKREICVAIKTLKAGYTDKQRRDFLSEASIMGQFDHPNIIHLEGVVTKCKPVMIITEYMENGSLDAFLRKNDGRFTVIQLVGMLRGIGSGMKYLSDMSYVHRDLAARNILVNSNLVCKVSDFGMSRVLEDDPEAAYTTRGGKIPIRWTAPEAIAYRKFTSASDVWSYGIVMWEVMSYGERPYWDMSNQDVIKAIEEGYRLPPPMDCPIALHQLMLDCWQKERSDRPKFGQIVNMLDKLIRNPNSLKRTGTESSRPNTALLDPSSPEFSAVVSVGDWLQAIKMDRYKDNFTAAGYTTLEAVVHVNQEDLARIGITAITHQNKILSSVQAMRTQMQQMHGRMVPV", "experiment": "Protein kinase profiling: EphA4", "assay_type": "biochemical", "conditions": "read-out: EphA4 inhibited", "procedure": "as §1"}, "[2]": {"system": "GFAP, GS, EAAT1, GAPDH, SOD1, actin, YB-1, RNA polymerase II, synaptophysin, EAAT3, EAAT4, PSD95, AKT, PI3K, IkB-α, ERK2", "experiment": "Total protein and expression of other proteins (global protein synthesis)", "assay_type": "in vivo, mouse", "description": "Furthermore, the following observations indicate that the effects of Compound 212320 on EAAT2 protein expression were not due to a general increase in protein synthesis. First, the total amount of protein in compound-treated cells and mice was not increased compared with that in vehicle-treated cells and mice. Secondly, we examined the expression of a variety of other proteins in mouse brains: astrocyte-specific proteins including GFAP, glutamine synthetase (GS), and EAAT1 (another astrocytic glutamate transporter subtype), several housekeeping proteins including GAPDH, SOD1, actin, YB-1, RNA polymerase II, several neuronspecific proteins including synaptophysin, EAAT3 (a neuronal glutamate transporter), EAAT4, PSD95, and several signaling proteins including AKT, PI3K, IkB-α and ERK2."}, "EAAT2": {"system": "EAAT2", "experiment": "Immunofluorescent staining of induced EAAT2 protein in PA-EAAT2 cells", "assay_type": "cell-based, human", "conditions": "PA-EAAT2 cells (FIG. 6E)", "procedure": "Characterization and efficacy studies of a compound, Compound 212320 (FIG. 6A) is shown. […] In the absence of serum, PA-EAAT2 cells express low amounts of EAAT2 protein, although the recombinant EAAT2 mRNA are expressed (translational silencing); however, EAAT2 protein levels are increased when an activator is added to the culture (translational activation). This cell line was used for high-throughput screening to identify EAAT2 translational activators. To prioritize candidate compounds, we initially evaluated activation of EAAT2 protein in PA-EAAT2 cells. Promising compounds were further evaluated in primary dissociated neuron and astrocyte mixed cultures and then in mice. FIG. 6 presents the characterization of Compound 212320 in PA-EAAT2 cells. Compound 212320 increased EAAT2 protein levels in a dose—(FIG. 6B) and time—(FIG. 6C) dependent manner. Importantly, the induction occurred in a short amount of time (within 1-2 hr) and was sustained even up to 72 hr (data not show). Additionally, induction occurred at low nanomolar concentrations. […] (FIG. 6D)."}, "[3]": {"system": "male FVB mice, pilocarpine-induced SE", "experiment": "Epilepsy model (pilocarpine-induced status epilepticus mouse model)", "assay_type": "in vivo", "procedure": "Eight- to ten-week-old male FVB mice (22-32 g) received the 1st and 2nd injections of Compound 212320 (at 40 mg/kg in the formulation described above) at 20 and 3 hr prior to induction of seizure with pilocarpine (290 mg/kg, i.p., Sigma). To reduce peripheral cholinergic effects without interfering with the development of SE and chronic seizures, mice received (−) scopolamine methyl nitrate (1.5 mg/kg, Sigma, St. Louis, Mo.) 30 min prior to pilocarpine injection. Control animals were injected with scopolamine followed by saline, instead of pilocarpine. Mice were then observed for 2 hr to record acute seizure severity and latency period. The Racine scale (see Racine, R. J. Modification of seizure activity by electrical stimulation. II. Motor seizure. Electroencephalogr Clin Neurophysiol 32, 281-294 (1972)) was used to rate seizure severity as previously described in Kong, Q., et al. Increased glial glutamate transporter EAAT2 expression reduces epileptogenic processes following pilocarpine-induced status epilepticus. Neurobiol Dis (2012)).\nMice that reached SE and maintained tonic limbic extension for at least 60 min were kept and treated with compound daily for chronic seizure and pathological studies. The SE mice were fed with food soaked in a high sucrose (10%) saline solution to help recovery in the first 3 days after SE. Vehicle-treated SE mice and compound-treated SE littermates were carefully matched based on the body weight, seizure latency, seizure severity, and post-SE sickness.\nChronic seizure activities were recorded by webcam (Logitech, Fremont, Calif.) and reviewed using Windows Live Movie Maker. Daylight periods (9 AM-5 PM) were selected for observations because previous literature indicates a higher frequency of spontaneous recurrent seizures during the day (see Kong, Q., et al. Increased glial glutamate transporter EAAT2 expression reduces epileptogenic processes following pilocarpine-induced status epilepticus. Neurobiol Dis (2012); and Shapiro, L. A., Figueroa-Aragon, S. & Ribak, C. E. Newly generated granule cells show rapid neuroplastic changes in the adult rat dentate gyrus during the first five days following pilocarpine-induced seizures. Eur J Neurosci 26, 583-592 (2007)). At 8 weeks post-SE, brain tissue was harvested from SE mice for cresyl violet staining\nReferring to FIG. 3, Compound 212320 reduced mortality rate, spontaneous recurrent seizure and neuronal death following pilocarpine-induced SE. Adult male FVB mice received Compound 212320 (i.p., 40 mg/kg), 3-hr later, were induced seizures with pilocarpine and were then observed for 2 hr to record acute seizure severity and latency period. The Racine scale was used to rate the seizure severity (described above). Mice that reached SE were treated with compound daily and at 4-week post-SE, were recorded chronic seizures for 2 weeks. A total of 15 independent experiments were performed, with a total of 153 vehicle-treated mice and 152 compound 7-4-treated mice. […] FIGS. 3(D-F) show spontaneous recurrent seizure. […] FIGS. 3(G-H) show hippocampal damage."}, "EphA5": {"target": "EphA5 (Homo sapiens, UniProt P54756)", "sequence (P54756 25-1037, species assumed)": "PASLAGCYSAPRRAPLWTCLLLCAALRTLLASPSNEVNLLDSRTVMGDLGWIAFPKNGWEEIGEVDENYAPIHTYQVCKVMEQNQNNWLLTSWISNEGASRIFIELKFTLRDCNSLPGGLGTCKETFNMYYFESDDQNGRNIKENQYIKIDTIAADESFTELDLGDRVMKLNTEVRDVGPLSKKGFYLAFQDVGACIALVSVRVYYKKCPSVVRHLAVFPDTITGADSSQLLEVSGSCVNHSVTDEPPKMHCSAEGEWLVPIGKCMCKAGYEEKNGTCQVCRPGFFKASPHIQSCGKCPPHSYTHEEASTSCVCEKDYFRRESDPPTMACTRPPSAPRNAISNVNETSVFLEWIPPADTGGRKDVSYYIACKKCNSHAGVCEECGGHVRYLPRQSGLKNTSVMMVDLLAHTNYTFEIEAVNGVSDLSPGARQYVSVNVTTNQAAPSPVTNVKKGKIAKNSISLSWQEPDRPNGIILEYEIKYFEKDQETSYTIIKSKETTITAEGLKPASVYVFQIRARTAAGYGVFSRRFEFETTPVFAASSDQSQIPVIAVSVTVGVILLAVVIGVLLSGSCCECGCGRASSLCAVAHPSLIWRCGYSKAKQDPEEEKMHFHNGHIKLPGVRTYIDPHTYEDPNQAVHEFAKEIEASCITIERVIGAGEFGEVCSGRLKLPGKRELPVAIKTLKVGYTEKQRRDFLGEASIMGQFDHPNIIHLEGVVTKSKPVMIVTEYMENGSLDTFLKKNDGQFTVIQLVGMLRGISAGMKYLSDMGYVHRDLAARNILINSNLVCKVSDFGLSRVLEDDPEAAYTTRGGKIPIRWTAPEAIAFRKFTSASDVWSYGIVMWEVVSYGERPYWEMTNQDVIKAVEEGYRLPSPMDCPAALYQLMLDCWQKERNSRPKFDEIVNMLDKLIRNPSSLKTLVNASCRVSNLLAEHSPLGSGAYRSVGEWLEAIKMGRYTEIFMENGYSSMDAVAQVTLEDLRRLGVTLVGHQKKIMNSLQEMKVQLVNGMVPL", "experiment": "Protein kinase profiling: EphA5", "assay_type": "biochemical", "conditions": "read-out: EphA5 inhibited", "procedure": "as §1"}},
  "data": [
    {"smiles": "Cc1ccccc1CSc1ccc(-c2ccccn2)nn1", "note": "[Compound 7-4]", "values": [
      {"measurement": "inhibition, all other targets", "setting": "[1]", "value": "< 30", "unit": "%"},
      {"measurement": "inhibition at 10 µM", "setting": "EphA4", "value": 44, "unit": "%"},
      {"measurement": "Induction of other proteins in mouse brains", "setting": "[2]; FIG. 8F", "value": "None of the above proteins were induced"},
      {"measurement": "Total amount of protein vs vehicle", "setting": "[2]; compound-treated cells and mice", "value": "not increased"},
      {"measurement": "Localization of induced EAAT2 protein", "setting": "EAAT2", "value": "properly localized to the plasma membrane"},
      {"measurement": "Hippocampal damage (hilar neuronal loss, cresyl violet)", "setting": "[3]; 8 weeks post-SE", "value": "significantly attenuated"},
      {"measurement": "Chronic seizure frequency (stage V spontaneous recurrent seizures)", "setting": "[3]; daily treatment, recorded from 4-week post-SE for 2 weeks", "value": "significantly reduced"},
      {"measurement": "Mortality rate vs vehicle", "setting": "[3]; day 7 post-SE", "value": "significantly decreased"},
      {"measurement": "Mortality rate vs vehicle", "setting": "[3]; day 60 post-SE", "value": "significantly decreased"},
      {"measurement": "Latency to indicated seizure stage vs vehicle", "setting": "[3]; i.p., 40 mg/kg", "value": "not significantly different"},
      {"measurement": "Acute seizure severity (percentage of mice reaching each seizure stage) vs vehicle", "setting": "[3]; i.p., 40 mg/kg, within 2-hr after pilocarpine", "value": "not significantly different"},
      {"measurement": "Mortality rate vs vehicle", "setting": "[3]; on the day that SE was induced", "value": "no obvious difference"},
      {"measurement": "inhibition at 10 µM", "setting": "EphA5", "value": 44, "unit": "%"}
    ]}
  ]
}
